How the values were obtained:
[1] = system: neutrophilic infiltration in mouse lung; experiment: Effect on lipopolysaccharide-induced neutrophilic infiltration in mouse lung (BAL fluid neutrophil count); format: in vivo; details: oral, 30 minutes before LPS aerosol, BAL fluid neutrophils after 5 hours, mouse (BALB/c, male)
Experimental: Effect of Lipopolysaccharide Induction on Neutrophilic Infiltration in Mouse Lung
A compound to be tested was orally administrated to a mouse (BALB/c, male), and after 30 minutes, the mouse was placed in a plastic container. Lipopolysaccharide (0.3 mg/mL) dissolved in physiological saline was aerosolized with an ultrasonic wave nebulizer (NE-U17, OMRON Corporation), and exposed to the mouse for 10 minutes. After 5 hours, the anesthetized mouse was sacrificed by exsanguination. A cannula was inserted in the respiratory tract and bronchoalveolar lavage (BAL) with 1 mL of […] liquid containing 0.4% sodium citrate was carried out. This operation was repeated 3 times, to obtain a BAL fluid. The BAL fluid was centrifuged at 4° C. and ×200 g for 5 minutes, and the pellet was suspended in a physiological saline containing 0.1% BSA. The number of white blood cells was counted using Turks solution with a microscope, and the total white blood cell count was calculated. The white blood cells were fixed on a glass slide using Cytospin 3 (Thermo BioAnalysis Japan K. K.). The cells were stained with Diff-Quik (SYSMEX INTERNATIONAL REAGENTS CO., LTD.), and the number thereof was counted with a microscope, and the neutrophil ratio was calculated. The neutrophil ratio was multiplied by the total white blood cell count to calculate the total neutrophil count. An effect of the compound to be tested represents a percentage (%) of suppression ratio relative to the neutrophil count in a control.

[2] = target: T1, human FPRL1 (Homo sapiens, UniProt P25090); experiment: Measurement test of agonist activity on human FPRL1 (test of calcium mobilization in HEK293 cells transfected with human FPRL1 and Gα15); format: cell-based; details: read-out: Efficacy EC50
T1 construct: expressed in transfected cells; host or cells: HEK293 (JCRB9068, NIBIO), transient co-transfection of pCMV-script vectors with Lipofectamine 2000
T1 sequence (P25090 1-351): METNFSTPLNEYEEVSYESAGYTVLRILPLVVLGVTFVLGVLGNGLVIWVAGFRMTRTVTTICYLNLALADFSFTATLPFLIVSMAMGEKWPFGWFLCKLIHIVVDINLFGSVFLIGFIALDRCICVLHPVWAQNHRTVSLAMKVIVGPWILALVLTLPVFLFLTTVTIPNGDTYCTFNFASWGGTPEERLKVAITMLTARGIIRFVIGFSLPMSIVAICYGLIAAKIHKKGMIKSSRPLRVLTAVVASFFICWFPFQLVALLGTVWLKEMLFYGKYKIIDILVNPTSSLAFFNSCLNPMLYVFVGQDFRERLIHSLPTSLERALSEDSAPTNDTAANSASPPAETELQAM
Description: Measurement Test of Agonist Activity on Human FPRL1
(1-1) Construction of Human FPRL1 Expression Vector
Human FPRL (SEQ ID NO: 3) was amplified in a PCR reaction from cDNA derived from a monocytic leukemia cell line THP-1 (TIB-202, ATCC) as a template using a forward primer shown in SEQ ID NO: 1, a reverse primer shown in SEQ ID NO: 2, and KOD-plus-ver. 2 (KOD-211, TOYOBO CO., LTD.). […] 2 (LGK-201, TOYOBO CO., LTD.). The ligation product was transformed into DH5α (DNA-901, TOYOBO CO., LTD.), cultured on a 100 μg/mL kanamycin-containing LB medium, and purified with HiSpeed Plasmid Maxi Kit (12662, QIAGEN).
(1-2) Construction of Human Gα15 Expression Vector
2. The amplified PCR product and pCMV-script vector were digested with Hind III and XhoI, and the resultant digest was ligated with Ligation high ver. 2. The ligation product was transformed into DH5α, cultured on a 100 μg/mL kanamycin-containing LB medium, and purified with HiSpeed Plasmid Maxi Kit.
(2-1) Method for Culturing and Subculturing HEK293
HEK293 (JCRB9068, NIBIO) was cultured in an incubator at 5% CO2 and 37° C. using DMEM (11885-092, GIBCO) containing 10% FBS and 1× Penicillin-Streptomycin (15140-122, GIBCO).
(2-2) Introduction of Human FPRL1 and Gα15 Expression Vectors
The cells were inoculated in a Collagen Type 1 coated 6-well plate (4810-010, IWAKI) to 5×10^5 cells/2.5 mL/well and cultured overnight. On the next day, human FPRL1 and Gα15 expression vectors were introduced using Lipofectamine 2000 transfection reagent (11668-019, Life technologies). First, the human FPRL1 and Gα15 expression vectors were diluted with Opti-MEM I Reduced Serum Medium (31985-070, GIBCO) to 2 μg/250 μL/well and Lipofectamine 2000 transfection reagent was diluted with Opti-MEM I Reduced Serum Medium to be 4 μL/250 μL/well. The vectors and reagent were softly diffused, and incubated at room temperature for 5 minutes. The vector solution was mixed with Lipofectamine 2000 transfection reagent in equal amounts. In order to form a complex of the vectors and Lipofectamine 2000 transfection reagent, the mixture was incubated at room temperature for 20 minutes, and added at 500 μL/well to the medium of inoculated cells. The treated cells were cultured for 24 hours, inoculated in Poly-D-Lysine coated 96-well plate (356640, BD Biosciences) at a cell density of 7×10^4 cells/100 μL/well, and cultured for another 24 hours. The resultant cells were used in a measurement test of calcium mobilization in the cells.
(3) Evaluation of Agonist Activity on Human FPRL1 (Test of Calcium Mobilization in Cell)
An appropriate amount of each test compound was first weighed, and dissolved to 10^−2 M by addition of dimethyl sulfoxide (DMSO). […] The plate dispensed with compound solutions was set in Flexstation (Molecular Devices, LLC.) until measurement.
Subsequently, 10 mL of assay buffer and 100 μL of probenecid solution (dissolved by addition of 1 mL of assay buffer to a 250 mM stock) were sufficiently mixed and dissolved in Fluo-4 NW dye mix. The medium of cells inoculated on the previous day was removed, the dissolved Fluo-4 NW dye mix was added in an amount of 90 μL/well, and a reaction was caused in the dark at 37° C. for 45 minutes. The cells after the reaction and chips for addition of the compound were set in Flexstation, and variation in fluorescence intensity over time after addition of the compound was measured [amount of added compound=10 μL (final concentration 10^−5 M to 10^−12 M), excitation wavelength: 485 nm, measured wavelength: 525 nm, 1.5 sec×54 read]. A value was calculated by subtracting a base value during addition of DMSO from the maximum value of relative fluorescence unit, and analyzed. All the measurement data were analyzed with Prism 4 that was a data analysis tool.

Structure (SMILES) | EC50 [2] [nM] | further results
COc1ccc(C[C@H](NC(=O)Nc2ccc(Cl)cc2)c2nnn(CCO)n2)cc1 [Example 1-1, (−)-(S)-1-(4-Chlorophenyl)-3-{1-[2-(2-hydroxyethyl)-2H-tetrazol-5-yl]-2-(4-methoxyphenyl)ethyl}urea] | 0.25 | Suppression Ratio (%) ([1]; dose 1 mg/kg): 95.7%
N#Cc1ccc(C[C@H](NC(=O)Nc2ccc(Cl)cc2)c2nnn(CCO)n2)cc1 [Example 1-5, (S)-1-(4-chlorophenyl)-3-{2-(4-cyanophenyl)-1-[2-(2-hydroxyethyl)-2H-tetrazol-5-yl]ethyl}urea] | 0.57 | 
O=C(Nc1ccc(Cl)cc1)N[C@@H](Cc1ccc(Cl)cc1)c1nnn(CCO)n1 [Example 1-7, (−)-(S)-1-(4-chlorophenyl)-3-{2-(4-chlorophenyl)-1-[2-(2-hydroxyethyl)-2H-tetrazol-5-yl]ethyl}urea] | 2.7 | 
O=C(Nc1ccc(F)cc1)N[C@@H](Cc1ccc(Cl)cc1)c1nnn(CCO)n1 [Example 1-8, (−)-(S)-1-{2-(4-chlorophenyl)-1-[2-(2-hydroxyethyl)-2H-tetrazol-5-yl]ethyl}-3-(4-fluorophenyl)urea] | 1.37 | 
CCc1ccc(C[C@H](NC(=O)Nc2ccc(Cl)cc2)c2nnn(CCO)n2)cc1 [Example 1-11, (S)-1-(4-chlorophenyl)-3-{2-(4-ethylphenyl)-1-[2-(2-hydroxyethyl)-2H-tetrazol-5-yl]ethyl}urea] | 0.22 | 
CCc1ccc(C[C@H](NC(=O)Nc2ccc(Cl)cc2)c2noc(N(C)CCO)n2)cc1 [Example 1-15, (S)-1-(4-chlorophenyl)-3-(2-(4-ethylphenyl)-1-{5-[(2-hydroxyethyl)(methyl)amino]-1,2,4-oxadiazol-3-yl}ethyl)urea] | 0.63 | Suppression Ratio (%) ([1]; dose 3 mg/kg): 95.7%
COc1ccc(C[C@H](NC(=O)Nc2ccc(Cl)cc2)c2nnc(CCO)o2)cc1 [Example 1-20, (S)-1-(4-chlorophenyl)-3-{1-[5-(2-hydroxyethyl)-1,3,4-oxadiazol-2-yl]-2-(4-methoxyphenyl)ethyl}urea] | 0.17 | Suppression Ratio (%) ([1]; dose 3 mg/kg): 94%
CCc1ccc(C[C@H](NC(=O)Nc2ccc(Cl)cc2)c2nnc(CCO)o2)cc1 [Example 1-73, (−)-(S)-1-(4-chlorophenyl)-3-(2-(4-ethylphenyl)-1-(5-(3-hydroxyethyl)-1,3,4-oxadiazol-2-yl)ethyl)urea] | 0.73 | 
COc1ccc(CC(Cc2nnc(O)o2)NC(=O)Nc2ccc(Cl)cc2)cc1 (centres unmarked) [Example 1-75, 1-(4-chlorophenyl)-3-(1-(5-hydroxy-1,3,4-oxadiazol-2-yl)-3-(4-methoxyphenyl)propan-2-yl)urea] | 1.41 | 
COc1ccc(CC(NC(=O)Nc2ccc(Cl)cc2)/C(N)=N/O)cc1 (centres unmarked) [Example 4] | 0.34 | 
CNC(=O)c1ncoc1[C@H](Cc1ccc(OC)cc1)NC(=O)Nc1ccc(Cl)cc1 [Example 14-3, (S)-5-(1-(3-(4-chlorophenyl)ureido)-2-(4-methoxyphenyl)ethyl)-N-methyl-oxazole-4-carboxamide] | 0.22 | 
COc1ccc(C[C@H](NC(=O)Nc2ccc(Cl)cc2)c2ocnc2C(=O)N(C)C)cc1 [Example 14-4, (S)-5-(1-(3-(4-chlorophenyl)ureido)-2-(4-methoxyphenyl)-ethyl)-N,N-dimethyloxazole-4-carboxamide] | 0.3 | 
CN(CCO)c1nc([C@H](Cc2ccc(Cl)cc2)NC(=O)Nc2ccc(Cl)cc2)no1 [Example 18-11, (S)-1-(4-chloro-phenyl)-3-(2-(4-chlorophenyl)-1-(5-((2-hydroxy-ethyl)(methyl)-amino)-1,2,4-oxadiazol-3-yl)ethyl)urea] | 0.3 | 
CCc1ccc(C[C@H](NC(=O)Nc2ccc(Cl)cc2)/C(N)=N/OCCO)cc1 [Example 19-1, (+)-(S,Z)-2-[3-(4-Chlorophenyl)ureido]-3-(4-ethylphenyl)-N′-(2-hydroxyethoxy)propanimidamide] | 0.56 | Suppression Ratio (%) ([1]; dose 3 mg/kg): 96.9%
N/C(=N\OCCO)[C@H](Cc1ccc(Cl)cc1)NC(=O)Nc1ccc(Cl)cc1 [Example 22-2, (+)-(S,Z)-3-(4-chlorophenyl)-2-(3-(4-chloro-phenyl)ureido)-N′-(2-hydroxy-ethoxy)propan-imidamide] | 0.2 | 
COc1ccc(C[C@H](NC(=O)Nc2ccc(Cl)cc2)/C(N)=N/C(=O)CCO)cc1 [Example 26-2, (S)-N-{2-[3-(4-chlorophenyl)-ureido]-1-imino-3-(4-methoxy-phenyl)propyl}-3-hydroxypropanamide] | 0.15 | 
N/C(=N\C(=O)CCO)[C@H](Cc1ccc(Cl)cc1)NC(=O)Nc1ccc(Cl)cc1 [Example 26-5 (B), (S)-N-{3-(4-chlorophenyl)-2-[3-(4-chloro-phenyl)ureido]-1-iminopropyl}-3-hydroxypropan-amide] | 0.66 | Suppression Ratio (%) ([1]; dose 3 mg/kg): 86%
COc1ccc(CC(NC(=O)Nc2ccc(Cl)cc2)/C(N)=N/C(=O)CO)cc1 (centres unmarked) [Example 26-11, N-{2-[3-(4-chlorophenyl)-ureido]-1-imino-3-(4-methoxy-phenyl)propyl}-2-hydroxyacetamide] | 0.41 | 
COc1ccc(CC(CO)NC(=O)Nc2ccc(Br)cc2)cc1 (centres unmarked) [Example 31-25, 1-(4-bromo-phenyl)-3-(1-hydroxy-3-(4-methoxyphenyl)-propan-2-yl)urea] | 8.45 | 
COc1ccc(C[C@H](CO)NC(=O)Nc2ccc(Cl)cc2)cc1 [Example 31-29] | 4.12 | Suppression Ratio (%) ([1]; dose 10 mg/kg): 95.5%

From patent US10858314B2, “Urea derivative or pharmacologically acceptable salt thereof” (KYORIN PHARMACEUTICAL CO., LTD., priority 2015, dated 2020)
